Values after ≈ are worked out from the molar mass of the structure shown. Where a SMILES comes first, the peptide text is derived from it.
Experiments:
[1] = tested on: S. aureus (ATCC 25923); format: cell-based, Staphylococcus aureus; settings: S. aureus (ATCC25923); 5×10^5 CFU.ml^−1, Mueller-Hinton Broth, 37°C, 24 h, OD 595 nm, biological triplicates
Experimental: (§1) Susceptibility tests were performed using clinical isolates of Klebsiella pneumoniae carbapenemase (KPC 1410503) and methicillin-resistant S. aureus (MRSA 3730592). Tests were also performed with ATCC (American Type Culture Collection) isolates of K. pneumoniae (ATCC 13883) and S. aureus (ATCC 25923).
(§2) Two multidrug-resistant clinical isolates and two ATCC isolates were chosen to perform microbial susceptibility testing as models for studies with bacteria susceptible to antimicrobials found in the Gram-Positive and Gram-Negative groups of bacteria.
(§3) The broth microdilution method was performed according to the Clinical and Laboratory Standards Institute (CLSI) M07-A10 protocol to determine the Minimum Inhibitory Concentration (MIC; [Clinical Laboratory Standards Institute, 2015]). The assay was performed on 96-well microplates (TPP, United States), containing 5×10^5 CFU.ml^−1 of each tested bacterium per well and different peptide micromolar concentrations (Table 1) in a final volume of 100 μl of Mueller-Hinton Broth (MH). Negative control was represented by bacteria incubated in MH medium, while positive control was represented by culture incubated in MH medium with Amikacin. Plates were kept under agitation at 37°C in a BioTek spectrophotometer (PowerWaveTM HT Microplate Reader) with optical density (OD) readings at 595 nm every 30 min for 24 h. Inhibition results were analyzed using GraphPad Prism 8 software by comparing the OD from negative control wells (100%) to those containing peptides. All tests were performed in biological triplicates.

[2] = tested on: methicillin-resistant S. aureus (MRSA 3730592); format: cell-based, Staphylococcus aureus; settings: Methicillin-Resistant S. aureus—MRSA clinical isolate 3730592; 5×10^5 CFU.ml^−1, Mueller-Hinton Broth, 37°C, 24 h, OD 595 nm, biological triplicates
Experimental: as §1, §2, §3

[3] = tested on: RAW 264.7 cells; test: MTT cytotoxicity test against RAW 264.7; format: cell-based, mice; settings: 24 h; for toxicity against RAW264.7 cells (in words): tested concentrations of Table 1 (128–16 μg.ml^−1)
Experimental: The cell line RAW 264.7 was obtained from the Rio de Janeiro Cell Bank (CR108). These cells are macrophages derived from induced tumors in male BALB/c mice infected with Abelson’s murine leukemia virus ([Raschke et al., 1978]). RAW264.7 cells were grown in DMEM medium (Dulbecco’s Modified Eagle’s medium, composed of CaCl2 (anhydrous) 200 mg.ml^−1, Fe(NO3).9H2O 0.1 mg.ml^−1, KCL 400 mg.ml^−1, MgSO4 (anhydrous) 97.67 mg.ml^−1, NaCL 6.400 mg.ml^−1, NaH2PO4.H2O 125 mg.ml^−1) supplemented with 10% (v/v) of bovine fetal serum, 0.5% (v/v) of DMEM amino acid solution, 0.05% (w/v) gentamicin, 0.5% (w/v) of L-glutamine, and 0.5% (w/v) of penicillin/streptomycin (1,000 U.ml^−1) in an incubator containing 5% CO2, at 37°C, and 95% humidity ([Raschke et al., 1978]; [Nguyen et al., 2017]).
RAW 264.7 cells were seeded in 96-well plates, at a concentration of 10^4 cells/well, and incubated for 24 h. Each peptide was subsequently added at different micromolar concentrations (Table 1). Positive control was performed by cells in culture medium and negative control, as cell culture in lysis solution (10 mM Tris, 1 mM EDTA, and 0.1% Triton X-100, pH 7.4).
Cell viability analyses were performed in technical and biological replicates, and readings were obtained after 24 h of contact with peptides. At the end of the incubation period, MTT (Sigma-Aldrich, United States) was used to assess the ability of living cells to reduce salt 3-[4,5-dimethylthiazole-2-yl]-2,5-diphenyltetrazolium bromide for formazan production. Plates were read at 570 ηm ([Mosmann, 1983]) and results were expressed in the percentage of living cells. The results were analyzed using GraphPad Prism 8 software where a One-Way ANOVA statistical test was followed by Bonferroni’s multiple comparisons test.

[4] = tested on: Spodoptera frugiperda (SF21) cells; test: In vitro test against insect cells (MTT); format: cell-based; settings: 24 h
Experimental: To evaluate the ability of the peptides to cause lysis and morphological changes in insect cells ([Dutra, 2019]; Patent: BR 102022 006138 6) as a first screening of the insecticidal activity of the peptides, in this work, the Spodoptera IPLB-SF-21AE _LVI-Cenargen cell line ([Vaughn et al., 1977]) was used and different concentrations of the peptides were added to the culture medium.
Cells were maintained at 27°C in TNMFH medium (Grace’s insect medium supplemented with lactalbumin hydrolyzate and yeastolate), supplemented with 10% (v/v) fetal bovine serum (Sigma-Aldrich; [Castro et al., 2006]).
Cell cultivation was carried out in 10 ml culture bottles, model K11-1050 25cm^2, with 5 ml of culture medium per bottle. For the assays, the SF21 cells were grown in TNMFH medium, added 10% (v/v) of bovine fetal serum, and distributed in plates of 96 wells at the concentration of 2×10^4 cells per well, after counting was performed in the Neubauer chamber. Cell suspension was distributed in a volume of 100 μl per well. Peptides were diluted in TNMFH medium and 100 μl of medium with peptide was added, obtaining concentrations of 10, 5, and 1 μM, reaching the volume of 200 μl at the final concentrations of reaction per well. Cells were placed in incubation at 27°C, for 24 h.
After 24 h, the cells were analyzed for their modifications, morphological alterations, turbidity of the medium, formation of clumps, and/or lysis in the presence of peptides, by observation under optical microscopy (Nikon Eclipse TS100) with 20× and 40× magnification. Characteristics that could represent cell death or cell dysfunction caused by the peptides were observed compared to control cells. Cells were evaluated by cell viability using the MTT test 3-[4,5-dimethylthiazole-2-yl]-2,5-diphenyltetrazolium bromide 0.5 mg.ml^−1 (Sigma-Aldrich). To perform the test, the cell culture medium was discarded, and we added 100 μl of new medium. Ten μl of MTT was added to each well and incubated for 4 h, with the plates protected from light. After 4 h, we added 100 μl of DMSO to each well to dissolve the formazan crystals, and the reading in the microplate reader ([Riss et al., 2016]) was then performed. The results were analyzed using GraphPad Prism 8 software, where a One-Way ANOVA statistical test was followed by Bonferroni’s multiple comparisons test.

[5] = lowest concentration tested (1 μM)

Compound | Minimum inhibitory concentration (MIC) [1] [µM] | Minimum inhibitory concentration (MIC) [2] [µM] | toxicity to RAW264.7 cells at the MIC concentration (in words) ([3]; R1b: MIC found for KPC1410503, R3b: MIC at high concentrations against all tested microorganisms) | toxicity against RAW264.7 cells (in words) [3] | viable cells (SF21) ([4]; 10 μM) [%] | cell viability (SF21) ([4]; 5 and 1 μM) | cell viability in RAW cells at the MIC value found for bacteria ([3]; 17.07 and 8.53 μM) | cell viability (SF21) [4, 5] | cell viability (RAW264.7) in the MIC found for the two strains of S. aureus ([3]; at the MIC of R6b for these strains (17.7 μM in Table 3)) [%] | cell viability in RAW264.7 cells from the MIC concentration found for MRSA3730592, S. aureus ATCC25923, K. pneumoniae ATCC13883 ([3]; at the MIC of R8b for these strains (17.60 μM in Table 3)) [%]
CC(C)C[C@H](NC(=O)[C@H](C)NC(=O)CNC(=O)[C@H](Cc1ccccc1)NC(=O)CN)C(=O)N[C@@H](Cc1ccccc1)C(=O)N[C@@H](CCCCN)C(=O)N[C@@H](CCCNC(=N)N)C(=O)N[C@@H](CC(C)C)C(=O)N[C@@H](C)C(=O)N[C@@H](CCCCN)C(=O)N[C@@H](CCCCN)C(=O)N[C@H](C(=O)N[C@@H](C)C(=O)N[C@@H](CCCCN)C(=O)N[C@H](C(=O)N[C@H](C(=O)N[C@@H](C)C(N)=O)C(C)C)[C@@H](C)O)C(C)C [Peptide R3b] (H-GFGALFKRLAKKVAKTVA-NH2) | 67.21 (≈ 128 µg/mL) | 67.21 (≈ 128 µg/mL) | toxic | high toxicity | 14 | greater than 50% |  |  |  | 
CC(C)C[C@H](NC(=O)[C@H](CCCNC(=N)N)NC(=O)[C@H](CCCCN)NC(=O)[C@H](Cc1ccccc1)NC(=O)[C@H](CC(C)C)NC(=O)[C@H](CCCCN)NC(=O)CNC(=O)[C@H](Cc1ccccc1)NC(=O)CN)C(=O)N[C@@H](C)C(=O)N[C@@H](CCCCN)C(=O)N[C@@H](C)C(=O)N[C@H](C(=O)N[C@@H](C)C(=O)N[C@@H](CCCCN)C(=O)N[C@@H](C)C(=O)N[C@H](C(=O)N[C@@H](C)C(N)=O)C(C)C)C(C)C [Peptide R10b] (H-GFGKLFKRLAKAVAKAVA-NH2) | 8.53 (≈ 16 µg/mL) | 8.53 (≈ 16 µg/mL) |  | high toxicity |  |  | more than 50% | below 50% |  | 
CC(C)C[C@H](NC(=O)[C@H](C)NC(=O)CNC(=O)[C@H](Cc1ccccc1)NC(=O)CN)C(=O)N[C@@H](Cc1ccccc1)C(=O)N[C@@H](CCCCN)C(=O)N[C@@H](Cc1ccccc1)C(=O)N[C@@H](CC(C)C)C(=O)N[C@@H](C)C(=O)N[C@@H](CCCCN)C(=O)N[C@@H](C)C(=O)N[C@H](C(=O)N[C@@H](C)C(=O)N[C@@H](CCCCN)C(=O)N[C@@H](C)C(=O)N[C@H](C(=O)N[C@@H](C)C(N)=O)C(C)C)C(C)C [Peptide R6b] (H-GFGALFKFLAKAVAKAVA-NH2) | 17.7 (≈ 32 µg/mL) | 17.7 (≈ 32 µg/mL) |  | high toxicity |  |  |  | below 50% | 62 | 
CC(C)C[C@H](NC(=O)[C@H](C)NC(=O)CNC(=O)[C@H](Cc1ccccc1)NC(=O)CN)C(=O)N[C@@H](Cc1ccccc1)C(=O)N[C@@H](CCCCN)C(=O)N[C@@H](CCCNC(=N)N)C(=O)N[C@@H](CC(C)C)C(=O)N[C@@H](C)C(=O)N[C@@H](CCCCN)C(=O)N[C@@H](C)C(=O)N[C@H](C(=O)N[C@@H](C)C(=O)N[C@@H](CCCCN)C(=O)N[C@@H](C)C(=O)N[C@H](C(=O)N[C@@H](C)C(N)=O)C(C)C)C(C)C [Peptide R8b] (H-GFGALFKRLAKAVAKAVA-NH2) | 17.60 (≈ 32 µg/mL) | 17.60 (≈ 32 µg/mL) |  |  |  |  |  | below 50% |  | 59

Reference: PMC9433906, “Evaluation of the biotechnological potential of peptide Cupiennin 1a and analogs” (Frontiers in Microbiology, 2022)
